≈ marks a conversion by molar mass, not a printed value. Read-outs that look alike come from different tables or passages of the source.
Columns and labels:
[1] = test system: AAP1-resistant mutants, derivatives of M. smegmatis ATCC19420; assay: MICs in AAP1-resistant mutants (resistance and cross-resistance levels); assay type: cell-based, Mycobacterium smegmatis
[2] = target: Mycobacterium tuberculosis RNA polymerase (Mycobacterium tuberculosis, UniProt P9WGY7+P9WGY9); assay: Run-off transcription assay with Mycobacterium tuberculosis RNA polymerase (radiochemical); assay type: biochemical
Sequence of Mycobacterium tuberculosis RNA polymerase (P9WGZ1 whole entry, the tested form may be a part): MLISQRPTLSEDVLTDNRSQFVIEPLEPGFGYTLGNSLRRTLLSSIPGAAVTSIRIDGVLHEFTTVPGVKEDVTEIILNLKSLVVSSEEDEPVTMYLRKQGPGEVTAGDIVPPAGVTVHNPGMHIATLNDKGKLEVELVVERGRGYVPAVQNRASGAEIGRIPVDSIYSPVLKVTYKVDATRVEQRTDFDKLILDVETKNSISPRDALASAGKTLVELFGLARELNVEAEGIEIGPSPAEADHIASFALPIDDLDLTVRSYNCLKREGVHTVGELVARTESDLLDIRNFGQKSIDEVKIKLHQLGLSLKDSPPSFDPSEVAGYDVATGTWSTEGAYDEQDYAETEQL
Sequence of Mycobacterium tuberculosis RNA polymerase (P9WGY5 whole entry, further chain, the tested form may be a part): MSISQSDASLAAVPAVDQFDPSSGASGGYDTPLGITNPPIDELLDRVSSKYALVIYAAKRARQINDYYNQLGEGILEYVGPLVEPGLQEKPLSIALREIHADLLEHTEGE
Sequence of Mycobacterium tuberculosis RNA polymerase (P9WGY9 whole entry, the tested form may be a part): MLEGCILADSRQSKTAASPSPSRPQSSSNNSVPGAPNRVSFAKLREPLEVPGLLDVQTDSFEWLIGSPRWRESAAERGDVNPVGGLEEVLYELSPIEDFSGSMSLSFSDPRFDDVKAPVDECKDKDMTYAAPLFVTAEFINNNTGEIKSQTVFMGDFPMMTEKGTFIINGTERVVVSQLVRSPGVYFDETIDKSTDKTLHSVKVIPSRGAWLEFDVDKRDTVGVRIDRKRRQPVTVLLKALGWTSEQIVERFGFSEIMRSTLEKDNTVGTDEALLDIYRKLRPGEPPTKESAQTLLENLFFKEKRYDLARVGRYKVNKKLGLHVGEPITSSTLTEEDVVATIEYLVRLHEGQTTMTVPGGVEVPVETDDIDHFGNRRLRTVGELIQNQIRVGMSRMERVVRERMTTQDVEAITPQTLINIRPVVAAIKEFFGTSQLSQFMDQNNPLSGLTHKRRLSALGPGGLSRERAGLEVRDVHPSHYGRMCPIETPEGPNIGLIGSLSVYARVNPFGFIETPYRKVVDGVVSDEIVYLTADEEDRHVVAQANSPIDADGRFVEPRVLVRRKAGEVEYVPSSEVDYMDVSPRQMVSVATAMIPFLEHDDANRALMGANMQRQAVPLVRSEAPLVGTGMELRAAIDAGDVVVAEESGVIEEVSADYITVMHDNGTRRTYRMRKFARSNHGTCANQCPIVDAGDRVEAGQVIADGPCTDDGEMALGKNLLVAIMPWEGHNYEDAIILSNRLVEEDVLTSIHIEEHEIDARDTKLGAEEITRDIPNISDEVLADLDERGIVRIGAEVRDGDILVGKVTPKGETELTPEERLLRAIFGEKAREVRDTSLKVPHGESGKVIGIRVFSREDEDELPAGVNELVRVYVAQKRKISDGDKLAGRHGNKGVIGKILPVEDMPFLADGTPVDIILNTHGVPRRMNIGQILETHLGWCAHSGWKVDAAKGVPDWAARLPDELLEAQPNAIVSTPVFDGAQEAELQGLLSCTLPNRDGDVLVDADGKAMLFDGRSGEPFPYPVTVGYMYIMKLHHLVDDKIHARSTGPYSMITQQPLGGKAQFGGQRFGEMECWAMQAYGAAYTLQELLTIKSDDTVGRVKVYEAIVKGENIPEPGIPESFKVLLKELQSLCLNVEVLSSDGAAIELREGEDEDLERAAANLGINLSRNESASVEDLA
Sequence of Mycobacterium tuberculosis RNA polymerase (P9WGI1 whole entry, further chain, the tested form may be a part): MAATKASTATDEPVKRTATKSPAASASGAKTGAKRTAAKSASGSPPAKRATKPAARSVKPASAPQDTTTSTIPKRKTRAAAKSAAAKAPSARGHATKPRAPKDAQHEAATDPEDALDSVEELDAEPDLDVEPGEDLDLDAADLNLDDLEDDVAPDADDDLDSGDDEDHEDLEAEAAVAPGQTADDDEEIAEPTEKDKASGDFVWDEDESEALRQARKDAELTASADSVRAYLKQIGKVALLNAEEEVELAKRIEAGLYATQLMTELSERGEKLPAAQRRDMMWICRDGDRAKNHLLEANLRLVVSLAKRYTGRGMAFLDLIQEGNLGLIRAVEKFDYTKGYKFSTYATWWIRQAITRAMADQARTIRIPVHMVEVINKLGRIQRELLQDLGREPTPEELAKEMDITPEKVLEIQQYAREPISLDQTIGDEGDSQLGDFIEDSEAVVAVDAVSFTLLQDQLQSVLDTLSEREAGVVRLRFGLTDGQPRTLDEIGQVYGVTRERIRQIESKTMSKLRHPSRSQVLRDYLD
Sequence of Mycobacterium tuberculosis RNA polymerase (P9WGY7 whole entry, the tested form may be a part): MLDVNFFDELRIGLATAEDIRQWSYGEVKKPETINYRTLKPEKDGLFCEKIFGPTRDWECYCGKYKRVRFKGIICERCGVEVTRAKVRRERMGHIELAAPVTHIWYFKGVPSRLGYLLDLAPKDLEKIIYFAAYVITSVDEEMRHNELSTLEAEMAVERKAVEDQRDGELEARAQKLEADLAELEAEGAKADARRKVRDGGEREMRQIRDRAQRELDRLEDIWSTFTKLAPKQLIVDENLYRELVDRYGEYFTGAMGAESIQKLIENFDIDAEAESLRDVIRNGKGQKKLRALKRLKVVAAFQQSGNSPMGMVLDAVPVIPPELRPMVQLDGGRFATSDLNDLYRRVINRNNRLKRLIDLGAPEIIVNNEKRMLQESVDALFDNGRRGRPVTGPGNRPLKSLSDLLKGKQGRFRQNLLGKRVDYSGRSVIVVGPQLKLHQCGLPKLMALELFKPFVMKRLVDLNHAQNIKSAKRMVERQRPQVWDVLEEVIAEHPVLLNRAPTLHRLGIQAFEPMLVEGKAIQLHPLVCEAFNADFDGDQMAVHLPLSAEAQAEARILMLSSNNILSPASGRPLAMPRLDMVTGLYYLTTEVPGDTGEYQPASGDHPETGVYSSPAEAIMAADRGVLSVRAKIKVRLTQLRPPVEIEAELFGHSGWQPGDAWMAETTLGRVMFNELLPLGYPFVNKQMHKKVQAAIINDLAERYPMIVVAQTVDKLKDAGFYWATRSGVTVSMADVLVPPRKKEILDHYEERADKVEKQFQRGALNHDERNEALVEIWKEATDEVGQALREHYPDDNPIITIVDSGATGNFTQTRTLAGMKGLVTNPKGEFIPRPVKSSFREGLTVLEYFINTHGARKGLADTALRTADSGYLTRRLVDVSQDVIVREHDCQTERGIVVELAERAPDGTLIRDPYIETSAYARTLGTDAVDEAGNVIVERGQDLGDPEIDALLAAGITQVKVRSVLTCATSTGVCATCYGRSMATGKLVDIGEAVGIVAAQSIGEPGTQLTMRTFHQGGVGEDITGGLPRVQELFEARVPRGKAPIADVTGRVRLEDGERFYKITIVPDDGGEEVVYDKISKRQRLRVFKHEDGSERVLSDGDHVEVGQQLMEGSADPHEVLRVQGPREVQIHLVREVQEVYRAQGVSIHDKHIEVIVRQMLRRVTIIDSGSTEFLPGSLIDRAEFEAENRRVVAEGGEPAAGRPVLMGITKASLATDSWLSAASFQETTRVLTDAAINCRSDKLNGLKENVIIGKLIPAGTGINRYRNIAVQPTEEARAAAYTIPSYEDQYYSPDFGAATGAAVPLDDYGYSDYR
Protocol: Run-off transcription assays with Mycobacterium tuberculosis RNA polymerase were performed using reaction mixtures containing (10 μl): 0-100 μM test compound, 75 nM Mycobacterium tuberculosis RNA polymerase core enzyme, 300 nM Mycobacterium tuberculosis σ^A, 20 nM 130 bp DNA fragment containing positions −100 to −1 of the bacteriophage […] N25 promoter followed by positions +1 to +30 of the lacUV5-15 promoter of [Mukhopadhyay, J., Kapanidis, A., Mekler, V., Kortkhonjia, E., Ebright, Y., Ebright, R. (2001) Cell 106, 453-463], 25 nM [alpha-^32P]UTP (600 Bq/pmol) for an initial 2 min at 37° C. and 100 μM [alpha-^32P]UTP (6 Bq/pmol) for a subsequent 5 min at 37° C., 100 μM ATP, 100 μM GTP, 100 μM UTP, 100 μM CTP, 40 mM Tris-HCl, pH 8.0, 80 mM NaCl, 5 mM MgCl2, 2.5 mM DTT, and 12.7% glycerol. Reactions were terminated by addition of […] 80% formamide, 10 mM EDTA, 0.04% bromophenol blue, and 0.04% xylene cyanol, followed by heating for 5 min at 90° C. Reaction products were resolved by 15% urea-PAGE, and quantified using a storage-phosphor scanner.

[3] = test system: Mycobacterium smegmatis ATCC 19420; assay: Broth microdilution MIC, M. smegmatis; assay type: cell-based; settings: Mycolicibacterium smegmatis
Text: (§1) MICs in Mycobacterium smegmatis ATCC 19420 and Mycobacterium smegmatis ATCC 19420 derivatives were quantified using broth microdilution assays as described [Clinical and Laboratory Standards Institute (CLSI/NCCLS) (2009) Methods for Dilution Antimicrobial Susceptibility Tests for Bacteria That Grow Aerobically; Approved Standard, Eighth Edition. CLIS Document M07-A8 (CLIS, Wayne Pa.)].

[4] = test system: Mycobacterium tuberculosis H37Rv; assay: Microplate Alamar Blue assay (MABA) MIC, M. tuberculosis; assay type: cell-based
Text: (§2) Minimal inhibitory concentrations (MICs) in Mycobacterium tuberculosis H37Rv and Mycobacterium avium ATCC 25291 were quantified using microplate Alamar Blue assays as described (MABA; [Collins, L. & Franzblau, S. (1997) Microplate Alamar Blue assay versus BACTEC 460 system for high-throughput screening of compounds against Mycobacterium tuberculosis and Mycobacterium avium. Antimicrob. Agents Chemother. 41, 1004-1009]).

[5] = test system: rifampin-resistant mutants, derivatives of M. smegmatis ATCC19420; assay: MICs in rifampin-resistant mutants (cross-resistance levels); assay type: cell-based, Mycobacterium smegmatis
Text: as §1

[6] = test system: Mycobacterium smegmatis ATCC 19420; assay: Spontaneous resistance rate, fluctuation assays; assay type: cell-based; settings: 96 h fluctuation assays, M. smegmatis ATCC19420
Protocol: Resistance rates were determined using fluctuation assays [Luria, S., Delbrück, M. (1943) Genetics 28, 491-511.]. […] (at least 3 independent determinations for each concentration of each test compound). Resistance rates and 95% confidence intervals were calculated using the Ma-Sandri-Sarkar Maximum Likelihood Estimator (MSS-MLE [Ma, W., Sandri, GvH., Sarkar, S. (1992.) J. Appl. Probab. 29, 255-267; Sarkar, S., Ma, W., Sandri, GvH. (1992) Genetica 85, 173-179]) as implemented on the Fluctuation Analysis Calculator (FALCOR; www.keshavsingh.org/protocols/FALCOR.html [Hall, B., Ma, C., Liang, P., Singh, K (2009) Bioinformatics 25, 1564-1565]). Sampling correction was performed as in [Stewart, F., Gordon, D., Levin, B. (1990) Genetics 124, 175-185; Jones, M. (1993) Mutat. Res. 292, 187-189].

[7] = test system: Mycobacterium avium ATCC 25291; assay: Microplate Alamar Blue assay (MABA) MIC, M. avium; assay type: cell-based; settings: ATCC25291, M. avium ATCC 25291
Text: as §2

[8] = target: Escherichia coli RNA polymerase (Escherichia coli, UniProt P0A8T7+P0A8V2); assay: Analogous run-off transcription assay with Escherichia coli RNA polymerase; assay type: biochemical; settings: run-off transcription assays with Escherichia coli RNA polymerase; read-out: IC50 for inhibition of Escherichia coli RNA polymerase
[9] = test system: Vero E6 ATCC CRL1586 cells; assay: Mammalian-cell cytotoxicity, minimal cytotoxic concentration (CellTiter96); assay type: cell-based
Protocol: Minimal cytotoxic concentrations (MCCs) against mammalian cells in culture were determined using Vero E6 ATCC CRL1586 cells and the CellTiter96 assay kit (Promega, Inc.). […]

Row | SMILES | resistance of tested AAP1-resistant mutants ([1]; all tested AAP1-resistant mutants) [fold] | IC50 ([2]; Inhibition of mycobacterial RNA polymerase (IC50s), radiochemical transcription assays, M. tuberculosis RNA polymerase) [µM] | MIC ([3]; ATCC19420, broth microdilution assays, M. smegmatis ATCC19420, read-out: Inhibition of mycobacterial growth in culture (MICs)) [µg/mL] | MIC ([3]; ATCC19420, read-out: MIC with wild-type rpoB and wild-type rpoC, M. smegmatis ATCC19420 wild type, reference for AAP1-resistant mutants) [µg/mL] | MIC ([4]; MABA-MIC assays, read-out: Inhibition of mycobacterial growth in culture (MICs)) [µg/mL] | cross-resistance of rifampin-resistant mutants to the compound [5] | hypersensitivity of rifampin-resistant mutants to the compound [5] | spontaneous resistance rate at 2xMIC ([6]; 2xMIC) | spontaneous resistance rate at 4xMIC ([6]; 4xMIC) | spontaneous resistance rate at 8xMIC ([6]; 8xMIC) | MIC [7] [µg/mL] | IC50 [8] [µM] | cross-resistance of AAP1-resistant mutants to the compound ([1]; MICs in AAP1-resistant mutants) | IC50 ([2]; IC50 Mycobacterium tuberculosis RNA polymerase) [µM] | MCC mammalian cells Vero E6 ATCC CRL1586 [9] [µg/mL] | MIC ([3]; ATCC19420, M. smegmatis ATCC 19420, read-out: MIC Mycobacterium smegmatis ATCC 19420) [µg/mL] | MIC ([4]; read-out: MIC Mycobacterium tuberculosis H37Rv) [µg/mL] | solubility (physchem) [µM]
1 | Cc1ccccc1NC(=O)C(Cc1ccccc1)NC(=O)c1ccccc1 (racemic) [AAP1, Nα-benzoyl-N-(2-methylphenyl)-D/L-phenylalaninamide] | > 60 | 0.68 | 0.39 (≈ 1.09 µM) | 0.78 (≈ 2.18 µM) | 6.25 (≈ 17.4 µM) | No rifampin-resistant mutant was found to exhibit cross-resistance | One rifampin-resistant mutant was found to be hypersensitive | 5 × 10^−9/generation | 4 × 10^−9/generation | 5 × 10^−9/generation |  |  |  |  |  |  |  | 
2 | O=C(NC(Cc1ccccc1)C(=O)Nc1cccc2[nH]ncc12)c1ccccc1 (stereo not shown) [IX-37, N-(1-((1H-indazol-4-yl)amino)-1-oxo-3-phenylpropan-2-yl)benzamide] |  |  |  |  |  | No rifampin-resistant mutant was found to exhibit cross-resistance |  |  |  |  | 12.5 (≈ 32.5 µM) | 10 | cross-resistance | 3.3 | 55 | 0.195 (≈ 0.507 µM) | 12.5 (≈ 32.5 µM) | > 10
